Test results: PubChem BioAssay (NCI)
Where “and” joins values, the source holds several entries; their conditions need not be identical. Equal values may be shown once.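 Protocol summary: plate cells (96-well), add compound at 5 concentrations, incubate 48 h, interpolate endpoints linearly. GI50 is the concentration that inhibits growth by half. At the TGI there is no net growth.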

Columns and labels:
Assay in all cases: inhibition of tumour cell growth, NCI panel, 48 h
NCI-H23 lung = test system: NCI-H23 lung
HT29 colon = test system: HT29 colon
SF-539 CNS = test system: SF-539 CNS
KM12 colon = test system: KM12 colon
NCI-H522 lung = test system: NCI-H522 lung
SF-295 CNS = test system: SF-295 CNS
SNB-19 CNS = test system: SNB-19 CNS
COLO 205 colon = test system: COLO 205 colon
UO-31 renal = test system: UO-31 renal
HOP-92 NSCLC = test system: HOP-92 NSCLC

SMILES	TGI (NCI-H23 lung)	TGI (HT29 colon)	TGI (SF-539 CNS)	TGI (KM12 colon)	TGI (NCI-H522 lung)	TGI (SF-295 CNS)	TGI (SNB-19 CNS)	TGI (COLO 205 colon)	TGI (UO-31 renal)	GI50 (NCI-H23 lung)	GI50 (HOP-92 NSCLC)	TGI (HOP-92 NSCLC)	GI50 (HT29 colon)	GI50 (SF-539 CNS)	GI50 (KM12 colon)	GI50 (NCI-H522 lung)	GI50 (SF-295 CNS)	GI50 (SNB-19 CNS)	GI50 (COLO 205 colon)	GI50 (UO-31 renal)
NC(=S)N1N=C2CCCCCC[C@@H]2[C@H]1c1ccccc1	> 100 µM	> 100 µM	> 100 µM	> 100 µM	82.9 µM	> 100 µM	> 100 µM	> 100 µM	> 100 µM	–	–	–	–	–	–	–	–	–	–	–
O=C1CCCCCCC2=C1C(Sc1ccccc1)CC2 (stereo not given)	> 100 µM	83.8 µM	–	> 100 µM	41.4 µM	> 100 µM	> 100 µM	> 100 µM	92.1 µM	–	–	–	–	–	–	–	–	–	–	–
CCC1=C(c2ccc(OC)cc2)C(C)(C)Oc2c1ccc(O)c2CN1CCCC1	21.6 µM	8.94 µM	17.2 µM	3.9 µM	3.96 µM	6.01 µM	56.9 µM	87.4 µM	> 100 µM	3.02 µM	1.23 µM	3.98 µM	3.14 µM	3.05 µM	1.91 µM	1.97 µM	2.33 µM	6.69 µM	14.9 µM	2.19 µM
CCC[CH2][Sn](=[O])[CH2]CCC	> 50 µM	> 50 µM	> 50 µM	> 50 µM	> 50 µM	> 50 µM	> 50 µM	> 50 µM	> 50 µM	> 50 µM	31.9 µM	> 50 µM	> 50 µM	> 50 µM	> 50 µM	> 50 µM	> 50 µM	> 50 µM	> 50 µM	> 50 µM
COc1ccc(Br)cc1NC(=O)Nc1cccc2c1ccn2Cc1ccnc(N)c1	40.7 µM and > 10 µM	8.09 µM and > 10 µM	19.3 µM and > 10 µM	8.23 µM and > 10 µM	4.35 µM and > 10 µM	17.6 µM and > 10 µM	> 85.7 µM	18.2 µM and > 10 µM	26.3 µM and > 10 µM	14.5 µM and > 10 µM	2.18 µM and 1.96 µM	7.9 µM and 8.55 µM	2.59 µM and 2.24 µM	3.34 µM and 2.38 µM	2.57 µM and 4.27 µM	1.89 µM and 2.45 µM	3.69 µM and 3.61 µM	13.6 µM and > 10 µM	6.48 µM and 4.48 µM	9.78 µM and 3.12 µM
CC(C)(C)C1=CC(=N/N=c2\scc(-c3ccccc3)n2-c2ccccc2)C=C(C(C)(C)C)C1=O	> 100 µM	> 100 µM	> 100 µM	> 100 µM	> 100 µM	> 100 µM	> 100 µM	> 100 µM	> 100 µM	–	–	> 100 µM	–	–	–	–	–	–	–	–
COc1ccc2c(c1)c(-c1nc(-c3cn(C)c4ccncc34)cs1)cn2C	3.45 µM	3.1 µM	3.25 µM	3.41 µM	3.26 µM	3.16 µM	4.73 µM	–	3.17 µM	1.81 µM	1.96 µM	3.79 µM	1.43 µM	1.77 µM	1.84 µM	1.77 µM	1.66 µM	2.26 µM	–	1.58 µM
